# US20170348398A1, “COMPOSITIONS AND METHODS FOR DECREASING BLOOD GLUCAGON LEVELS” (Vanderbilt University, priority 2016, published 2017)
# B1: activin A: Recombinant mouse Activin A protein (R&D Biosystems) (protein, UniProt Q04998 309-424, looked up)
# Inhibin beta A chain: GLECDGKVNICCKKQFFVSFKDIGWNDWIIAPSGYHANYCEGECPSHIAGTSGSSLSFHSTVINHYRMRGHSPFANLKSCCVPTKLRPMSMLYYDDGQNIIKKDIQNMIVEECGCS
# modifications: Inhibin beta A chain
# Test system: α-cells
# Assay: in vitro α-cell proliferation assay (cultured mouse islets, cytospin, Ki67+ glucagon+ counting)
# Format: cell-based
# Conditions: for α-cell proliferation when the amino acid is lowered to Gcgr+/+ serum levels: all other amino acids kept at high (Gcgr−/− serum) concentrations; for linear regression of amino acid concentration in media versus α-cell proliferation: media conditions of Table 1; for alpha cell proliferation at high levels of the amino acid: high levels of the single amino acid
# From the text: To maximize the ability to quantify proliferating α-cells intact mouse islets were first cultured in media supplemented with Gcgr−/− or Gcgr+/+ mouse serum, dispersing the islets into cells, and then the cells centrifuged into a focused monolayer of cells using a cytospin centrifuge (FIG. 1A). […] To further maximize the throughput of this assay, a cytonuclear algorithm was developed to automate quantification of α-cell proliferation in cytospin islet images (FIG. 7C).
# Pancreatic islets were isolated from male 8-14 week old C57B16/J mice (Jackson Laboratory, ME) and cultured in various media conditions for 3 days. […] For complete amino acid content in each media condition, see Table 1. For serum fractionation, serum was centrifuged for 1 hour at 2000×g at room temperature in a 10 kDa molecular weight cutoff spin column (Millipore, Billerica, Mass.). […] For lipid removal, serum was treated with Cleanascite reagent (Biotech Support Group, Monmouth Junction, N.J.) prior to islet culture at a 1:1 ratio according to the vendor's protocol.
# Dispersed islet cells were recovered by centrifugation in RPMI media containing 5.6 mM glucose, 10% FBS, and 1% Penicillin/Streptomycin. The resulting cell pellet was resuspended in 100 ul of media and centrifuged onto a glass slide using a cytospin (Thermo Scientific, Waltham, Mass.) centrifuge. Air-dried slides were stored at −80° C. until use, thawed, and immediately fixed in 4% paraformaldehyde before immunocytochemistry. Slides were mounted with Aqua-Poly/Mount (Warrington, Pa.).
# Cytospin slides were imaged using a Leica Microsystems Epifluorescent Microscope DM1 6000B. Tiled images were analyzed by a cytonuclear algorithm developed using the […] Software package (Indica Labs) (FIG. 7A). A glucagon surface was created by mapping glucagon immunoreactivity. DAPI and Ki67 positive cells were identified using a spot mapping algorithm. α-cells were identified by masking the glucagon surface on the DAPI staining and then creating a pseudospot where each α-cell was identified. Colocalization was determined by coregistering glucagon pseudospots with Ki67 spots. Each image was then manually checked for accuracy. For all islet culture experiments, a minimum of 500 α-cells counted per replicate (i.e. n=1) were required to be included in an experiment.
molecule,measurement,setting,value
NC(=O)NCCC[C@H](N)C(=O)O [Citrulline],α-cell proliferation,"cultured mouse islets, 3 days",failed to stimulate α-cell proliferation
N[C@@H](CCC(=O)O)C(=O)O [L-glutamic acid],α-cell proliferation when the amino acid is lowered to Gcgr+/+ serum levels,,not required for increased α-cell proliferation
same,linear regression of amino acid concentration in media versus α-cell proliferation,,significantly and positively correlated
NC(=O)CC[C@H](N)C(=O)O [L-glutamine],α-cell proliferation when the amino acid is lowered to Gcgr+/+ serum levels,,abolished the stimulation of α-cell proliferation
same,non α-cell proliferation,"cultured mouse islets, 3 days",no effect
same,α-cell proliferation,"cultured mouse islets, 3 days",in a dose-dependent fashion increased α-cell proliferation
same,linear regression of amino acid concentration in media versus α-cell proliferation,,significantly and positively correlated
CC(C)C[C@H](N)C(=O)O [L-leucine],α-cell proliferation when the amino acid is lowered to Gcgr+/+ serum levels,,not required for increased α-cell proliferation
same,linear regression of amino acid concentration in media versus α-cell proliferation,,significantly and positively correlated
C[C@H](N)C(=O)O [alanine],α-cell proliferation,"cultured mouse islets, 3 days",failed to stimulate α-cell proliferation
same,alpha cell proliferation at high levels of the amino acid,,not
N=C(N)NCCC[C@H](N)C(=O)O [arginine],alpha cell proliferation at high levels of the amino acid,,stimulated alpha cell proliferation
NC(=O)C[C@H](N)C(=O)O [asparagine],alpha cell proliferation at high levels of the amino acid,,not
NCC(=O)O [glycine],alpha cell proliferation at high levels of the amino acid,,not
N[C@@H](Cc1c[nH]cn1)C(=O)O [histidine],alpha cell proliferation at high levels of the amino acid,,not
CC[C@H](C)[C@H](N)C(=O)O [isoleucine],alpha cell proliferation at high levels of the amino acid,,not
NCCCC[C@H](N)C(=O)O [lysine],alpha cell proliferation at high levels of the amino acid,,not
CSCC[C@H](N)C(=O)O [methionine],alpha cell proliferation at high levels of the amino acid,,not
NCCC[C@H](N)C(=O)O [ornithine],α-cell proliferation,"cultured mouse islets, 3 days",failed to stimulate α-cell proliferation
same,alpha cell proliferation at high levels of the amino acid,,not
O=C(O)[C@@H]1CCCN1 [proline],alpha cell proliferation at high levels of the amino acid,,not
N[C@@H](CO)C(=O)O [serine],alpha cell proliferation at high levels of the amino acid,,not
N[C@@H](Cc1ccc(O)cc1)C(=O)O [tyrosine],alpha cell proliferation at high levels of the amino acid,,not
CC(C)[C@H](N)C(=O)O [valine],alpha cell proliferation at high levels of the amino acid,,not
B1,α-cell proliferation,"cultured mouse islets, 3 days",did not stimulate α-cell proliferation
